Experimental data: patent publication US8735414B2 (priority 2009, dated 2014)

Key:
[1] = system: bicistronic HCV replicon (replicon RNA, GenBank Accession No. AJ242654); test: HCV Replicon Assay; format: cell-based; details: Hepatitis C virus, 72 h, read-out: Replicon IC50

Row | SMILES | melting point | IC50 [1]
1 | N#Cc1c(-c2ccc(S(=O)(=O)NC(CF)CF)cn2)n(C2CCC2)c2ccc(Cl)cc12 [compound 30, 6-(5-chloro-3-cyano-1-cyclobutyl-1H-indol-2-yl)-N-(1,3-difluoropropan-2-yl)pyridine-3-sulfonamide] | 182 to 186 °C | < 500 nM
2 | CCc1cc2c(cc1F)c(C#N)c(-c1ccc(S(=O)(=O)N[C@@H](C)C(F)(F)F)cn1)n2C1CCC1 [compound 640, 6-(3-cyano-1-cyclobutyl-6-ethyl-5-fluoro-1H-indol-2-yl)-N-[(2S)-1,1,1-trifluoropropan-2-yl]pyridine-3-sulfonamide] | 205 to 206 °C | < 500 nM
3 | C[C@@H](NS(=O)(=O)c1ccc(-c2c(C#N)c3ccc(F)cc3n2CC2CC2)nc1)C(F)(F)F [compound 216, 6-[3-cyano-1-(cyclopropylmethyl)-6-fluoro-1H-indol-2-yl]-N-[(2R)-1,1,1-trifluoropropan-2-yl]pyridine-3-sulfonamide] | 173 to 175 °C | 500 to 2000 nM
4 | Cc1cc2c(cc1F)c(C#N)c(-c1ccc(S(=O)(=O)NC(C)(C)C)cn1)n2C1CCCCC1 [compound 710, N-tert-butyl-6-(3-cyano-1-cyclohexyl-5-fluoro-6-methyl-1H-indol-2-yl)pyridine-3-sulfonamide] | 244 to 245 °C | < 500 nM
5 | C[C@H](NS(=O)(=O)c1ccc(-c2c(C#N)c3cc(F)c(C4CC4)cc3n2-c2ccccn2)nc1)C(F)(F)F [compound 819, 6-[3-cyano-6-cyclopropyl-5-fluoro-1-(pyridin-2-yl)-1H-indol-2-yl]-N-[(2S)-1,1,1-trifluoropropan-2-yl]pyridine-3-sulfonamide] | 220 to 223 °C | < 500 nM
6 | Cc1ccc2c(c1)c(C#N)c(-c1ccc(S(=O)(=O)N[C@@H](C)C3CC3)cn1)n2CC1CC1 [compound 525, 6-[3-cyano-1-(cyclopropylmethyl)-5-methyl-1H-indol-2-yl]-N-[(1S)-1-cyclopropylethyl]pyridine-3-sulfonamide] | 181 to 185 °C | 500 to 2000 nM
7 | N#Cc1c(-c2ncc(S(=O)(=O)NC(CF)CF)cn2)n(C2CCC2)c2cc(C3CC3)ccc12 [compound 126, 2-(3-cyano-1-cyclobutyl-6-cyclopropyl-1H-indol-2-yl)-N-(1,3-difluoropropan-2-yl)pyrimidine-5-sulfonamide] | 165 to 168 °C | < 500 nM
8 | Cc1cnc(-n2c(-c3ccc(S(=O)(=O)N[C@@H](C)C(F)(F)F)cn3)c(C#N)c3cc(F)c(C)cc32)nc1 [compound 925, 6-[3-cyano-5-fluoro-6-methyl-1-(5-methylpyrimidin-2-yl)-1H-indol-2-yl]-N-[(2S)-1,1,1-trifluoropropan-2-yl]pyridine-3-sulfonamide] | 179 to 184 °C | < 500 nM
9 | CC(C)(C)NS(=O)(=O)c1ccc(-c2c(C#N)c3ccc(OC(F)(F)F)cc3n2C2CCCC2)nc1 [compound 18, N-tert-butyl-6-[3-cyano-1-cyclopentyl-6-(trifluoromethoxy)-1H-indol-2-yl]pyridine-3-sulfonamide] | 182 to 184 °C | 500 to 2000 nM
10 | CC(C)NS(=O)(=O)c1cnc(-c2c(C#N)c3ccc(F)cc3n2C(C)C)nc1 [compound 140, 2-[3-cyano-6-fluoro-1-(propan-2-yl)-1H-indol-2-yl]-N-(propan-2-yl)pyrimidine-5-sulfonamide] | 158 to 160 °C | 500 to 2000 nM
11 | N#Cc1c(-c2ccc(S(=O)(=O)NC(CF)CF)cn2)n(-c2ccncc2)c2ccc(F)cc12 [compound 259, 6-[3-cyano-5-fluoro-1-(pyridin-4-yl)-1H-indol-2-yl]-N-(1,3-difluoropropan-2-yl)pyridine-3-sulfonamide] | 199 to 203 °C | < 500 nM
12 | N#Cc1c(-c2ncc(S(=O)(=O)NC(CF)CF)cn2)n(CC2CC2)c2ccc(F)cc12 [compound 302, 2-[3-cyano-1-(cyclopropylmethyl)-5-fluoro-1H-indol-2-yl]-N-(1,3-difluoropropan-2-yl)pyrimidine-5-sulfonamide] | 216 to 221 °C | < 500 nM
13 | N#Cc1c(-c2ccc(S(=O)(=O)NC(CF)CF)cn2)n(C2CCCC2)c2c(F)cccc12 [compound 87, 6-(3-cyano-1-cyclopentyl-7-fluoro-1H-indol-2-yl)-N-(1,3-difluoropropan-2-yl)pyridine-3-sulfonamide] | 128 to 129 °C | < 500 nM
14 | Cc1cc2c(cc1F)c(C#N)c(-c1ccc(S(=O)(=O)N[C@@H](C)C(F)(F)F)cn1)n2-c1c[nH]nc1C [compound 1030, 6-[3-cyano-5-fluoro-6-methyl-1-(3-methyl-1H-pyrazol-4-yl)-1H-indol-2-yl]-N-[(2S)-1,1,1-trifluoropropan-2-yl]pyridine-3-sulfonamide] | 238.8 to 244 °C | 500 to 2000 nM
15 | CSc1ccc2c(C#N)c(-c3ncc(S(=O)(=O)NC(CF)CF)cn3)n(C3CCC3)c2c1 [compound 162, 2-[3-cyano-1-cyclobutyl-6-(methylsulfanyl)-1H-indol-2-yl]-N-(1,3-difluoropropan-2-yl)pyrimidine-5-sulfonamide] | 199 to 201 °C | < 500 nM
16 | Cc1cc2c(cc1F)c(C(=O)NC(C)C)c(-c1ccc(S(=O)(=O)N[C@@H](C)C(F)(F)F)cn1)n2C1CCCC1 [compound 763, 1-cyclopentyl-5-fluoro-6-methyl-N-(propan-2-yl)-2-(5-{[(2S)-1,1,1-trifluoropropan-2-yl]sulfamoyl}pyridin-2-yl)-1H-indole-3-carboxamide] | 234 to 236 °C | 500 to 2000 nM
17 | CC(C)NS(=O)(=O)c1cnc(-c2c(C#N)c3cc(Cl)ccc3n2C2CCCCC2)nc1 [compound 97, 2-(5-chloro-3-cyano-1-cyclohexyl-1H-indol-2-yl)-N-(propan-2-yl)pyrimidine-5-sulfonamide] | 210 to 215 °C | 500 to 2000 nM
18 | C[C@H](NS(=O)(=O)c1ccc(-c2c(C#N)c3cc(F)c(OC(F)F)cc3n2C2CCCC2)nc1)C(F)(F)F [compound 574, 6-[3-cyano-1-cyclopentyl-6-(difluoromethoxy)-5-fluoro-1H-indol-2-yl]-N-[(2S)-1,1,1-trifluoropropan-2-yl]pyridine-3-sulfonamide] | 181 to 184 °C | < 500 nM
19 | Cc1ccc2c(c1)c(C#N)c(-c1ccc(S(=O)(=O)N[C@@H](C)C(F)(F)F)cn1)n2-c1cnccn1 [compound 845, 6-[3-cyano-5-methyl-1-(pyrazin-2-yl)-1H-indol-2-yl]-N-[(2S)-1,1,1-trifluoropropan-2-yl]pyridine-3-sulfonamide] | 236 to 241 °C | < 500 nM
20 | N#Cc1c(-c2ccc(S(=O)(=O)NC3(C(F)(F)F)CC3)cn2)n(C2CCCC2)c2ccc(F)cc12 [compound 327, 6-(3-cyano-1-cyclopentyl-5-fluoro-1H-indol-2-yl)-N-[1-(trifluoromethyl)cyclopropyl]pyridine-3-sulfonamide] | 202 to 206 °C | < 500 nM
21 | C[C@H](NS(=O)(=O)c1ccc(-c2cc3cc(F)c(O)cc3n2C2CCC2)nc1)C(F)(F)F [compound 728, 6-(1-cyclobutyl-5-fluoro-6-hydroxy-1H-indol-2-yl)-N-[(2S)-1,1,1-trifluoropropan-2-yl]pyridine-3-sulfonamide] | 193 to 195 °C | 2000 to 5000 nM
22 | Cc1cc2c(cc1F)c(C(N)=O)c(-c1ccc(S(=O)(=O)NC(C)(C)C(F)(F)F)cn1)n2C1CCOCC1 [compound 768, 5-fluoro-6-methyl-1-(tetrahydro-2H-pyran-4-yl)-2-{5-[(1,1,1-trifluoro-2-methylpropan-2-yl)sulfamoyl]pyridin-2-yl}-1H-indole-3-carboxamide] | 200 to 206 °C | < 500 nM
23 | CCc1cc2c(cc1F)c(C(=O)O)c(-c1ccc(NS(=O)(=O)C(C)(C)C)cn1)n2C1CCCCC1 [compound 998, 2-{5-[(tert-butylsulfonyl)amino]pyridin-2-yl}-1-cyclohexyl-6-ethyl-5-fluoro-1H-indole-3-carboxylic acid] | 224 to 226 °C | 500 to 2000 nM
24 | Cc1cc2c(cc1Cl)c(C(N)=O)c(-c1ccc(S(=O)(=O)N[C@@H](C)C(F)(F)F)cn1)n2C1CCC1 [compound 734, 5-chloro-1-cyclobutyl-6-methyl-2-(5-{[(2S)-1,1,1-trifluoropropan-2-yl]sulfamoyl}pyridin-2-yl)-1H-indole-3-carboxamide] | 207 to 209 °C | < 500 nM
25 | Cc1ccc2c(c1)c(C#N)c(-c1ccc(S(=O)(=O)N[C@@H](C)C3CC3)cn1)n2C1CCC1 [compound 201, 6-(3-cyano-1-cyclobutyl-5-methyl-1H-indol-2-yl)-N-[(1S)-1-cyclopropylethyl]pyridine-3-sulfonamide] | 173 to 178 °C | < 500 nM
26 | N#Cc1c(-c2ccc(S(=O)(=O)NC(CF)CF)cn2)n(CC2CC2)c2cc(F)ccc12 [compound 57, 6-[3-cyano-1-(cyclopropylmethyl)-6-fluoro-1H-indol-2-yl]-N-(1,3-difluoropropan-2-yl)pyridine-3-sulfonamide] | 188 to 190 °C | < 500 nM
27 | C[C@H](NS(=O)(=O)c1ccc(-c2c(C#N)c3ccc(C#N)cc3n2C2CCC2)nc1)C(F)(F)F [compound 467, 6-(3,6-dicyano-1-cyclobutyl-1H-indol-2-yl)-N-[(2S)-1,1,1-trifluoropropan-2-yl]pyridine-3-sulfonamide] | 223 to 225 °C | < 500 nM
28 | C[C@@H](NS(=O)(=O)c1ccc(-c2c(C#N)c3ccc(F)cc3n2C2CCC2)nc1)C(F)(F)F [compound 215, 6-(3-cyano-1-cyclobutyl-6-fluoro-1H-indol-2-yl)-N-[(2R)-1,1,1-trifluoropropan-2-yl]pyridine-3-sulfonamide] | 178 to 180 °C | 500 to 2000 nM
29 | Cc1c(F)cc2c(c1F)c(C#N)c(-c1ccc(S(=O)(=O)NC(CF)CF)cn1)n2C1CCC1 [compound 556, 6-(3-cyano-1-cyclobutyl-4,6-difluoro-5-methyl-1H-indol-2-yl)-N-(1,3-difluoropropan-2-yl)pyridine-3-sulfonamide] | 207 to 212 °C | < 500 nM
